Measured values published in patent publication US20170165259A1, “COMBINED MODULATION OF IRE1” (THE REGENTS OF THE UNIVERSITY OF CALIFORNIA, priority 2014, published 2017).

Assays:
Type in all cases: cell-based, rat
endogenous IRE1α [1] = test: XBP1 mRNA splicing in INS-1 cells under ER stress; settings: thapsigargin (Tg) 6 nM
Experimental: (§1) FIGS. 5A-5E. […] (FIG. 5C) EtBr-stained agarose gel of XBP1 complementary DNA (cDNA) amplicons from the INS-1 cells described in (B).
(§2) To further explore how IRE1α modulators affect the kinase and RNase activities of endogenous IRE1α under ER stress, in vivo studies using INS-1 rat insulinoma cell lines, which are derived from insulin-producing pancreatic β-cell tumors and contain large well-developed ERs, were conducted.

endogenous IRE1α [2] = test: IRE1α auto-phosphorylation immunoblot in INS-1 cells under ER stress; settings: ER stress (Tg)
Experimental: as §1, §2
For protein analysis, cells were lysed in M-PER buffer (Thermo Scientific) plus complete EDTA-free protease inhibitor (Roche) and phosphatase inhibitor cocktail (Sigma). The concentration of samples was determined using BCA Protein Assay (Thermo). […] Gels were run using MES buffer and transferred onto nitrocellulose transfer membrane using an XCell II™ Blot Module. Blocking, antibody incubation, and washing were done in PBS or TBS with 0.05% Tween-20 (v/v) and 5% (w/v) non-fat dry milk or BSA, or blocking buffer (Licor-Odyssey). Antibodies used were: mouse anti-Actin (Sigma-Aldrich); rabbit anti-cleaved Caspase-2 (Abcam); mouse anti-GAPDH, anti-c-Myc, anti-rabbit, anti-proinsulin, and anti-IRE1α (Santa Cruz Biotechnology); anti-phospho-IRE1α and anti-full length Caspase-2 (Novus Biologicals); and rabbit anti-Caspase-3, anti-JNK, anti-eIF2a, anti-phospho-eIF2a, and mouse anti-phospho-JNK (Cell Signaling). Antibody binding was detected by using near-infrared-dye-conjugated secondary antibodies (Licor) on the LI-COR Odyssey scanner or visualized by capturing on a CL-XPosure film using ECL SuperSignal West Dura Extended Duration Substrate (both from Thermo Scientific).

INS-1 cells = test: Annexin V apoptosis of INS-1 cells under ER stress
Experimental: FIGS. 19A-19D. KIRA6 inhibits Terminal UPR outputs of IRE1α to protect against ER stress-induced apoptosis. […] (FIG. 19B) Q-PCR for Ins1 mRNA in INS-1 IRE1α (WT) cells treated with Dox (5 ng/ml)−/+STF-083010 (50 M) over the indicated timecourse. (FIG. 19C) Annexin V staining of INS-1 cells after 72 hr with indicated [Tm]−/+STF-083010 (50 M). (FIG. 19D) Annexin V staining of INS-1 cells after 72 hr with Tm (0.2 μg/ml), STF-083010 (1 or 5 M), and KIRA6 (0.05 M) as indicated. Data plotted as mean+/−SD. P-values: *<0.05, **<0.01, ***<0.005.
For assaying apoptosis by Annexin V staining, cells were plated in 12-well plates overnight. Cells were then treated with various reagents for indicated time periods. On the day of flow cytometry analysis, cells were trypsinized and washed in PBS and resuspended in Annexin V binding buffer with Annexin-V FITC (BD Pharmingen™). Flow cytometry was performed on a Becton Dickinson LSRII flow cytometer.

IRE1α (WT) = test: Dox-induced IRE1α (WT) hyperactivation in INS-1 stable lines; settings: STF-083010 at 50 µM
Source text: These aforementioned terminal UPR signaling events can be completely mimicked simply by controlled over-expression of IRE1α, in the complete absence of upstream ER stress. Tetracycline-inducible isogenic INS-1 stable cell lines expressing WT IRE1α were generated. Induced with doxycycline (dox) the transgenic IRE1α proteins oligomerize, spontaneously trans-autophosphorylate and trigger XBP1 mRNA splicing. The transgenic systems are finely tuneable, with increasing [Dox] causing progressively greater IRE1α induction (the transgenic IRE1α protein is Myc-tagged). Phospho/Myc IRE1α ratios are finely controllable (and measureable) with increasing [Dox], as is XBP1 mRNA splicing. […] These include reduction of miR-17 and Ins1 mRNA, induction of CHOP mRNA, induction and proteolytic cleavage of caspases 1,2, and 3, and apoptosis as measured by Annexin-V staining. […]
For protein analysis, cells were lysed in M-PER buffer (Thermo Scientific) plus complete EDTA-free protease inhibitor (Roche) and phosphatase inhibitor cocktail (Sigma). The concentration of samples was determined using BCA Protein Assay (Thermo). […] Antibody binding was detected by using near-infrared-dye-conjugated secondary antibodies (Licor) on the LI-COR Odyssey scanner or visualized by capturing on a CL-XPosure film using ECL SuperSignal West Dura Extended Duration Substrate (both from Thermo Scientific).

O=S(=O)(N=Cc1c(O)ccc2ccccc12)c1cccs1 [STF-083010, N-[(2-Hydroxy-1-naphthalenyl)methylene]-2-thiophenesulfonamide, reference compound]
XBP1 mRNA splicing (IRE1α RNase activity) in INS-1 cells (endogenous IRE1α [1]): inhibits XBP1 splicing in a dose-dependent manner | endogenous IRE1α auto-phosphorylation in INS-1 cells (endogenous IRE1α [2]): does not prevent IRE1α auto-phosphorylation | endogenous IRE1α auto-phosphorylation in INS-1 cells (endogenous IRE1α [2]; listed as STF): does not inhibit IRE1α auto-phosphorylation | cytoprotection under Tm, single agent at the dose of the combination (INS-1 cells; STF-083010 1 M or KIRA6 50 nM alone): sub-therapeutic individually | apoptosis by Tm (INS-1 cells; STF-083010 at 50 µM): decreases | Ins1 mRNA decay under IRE1α hyperactivation (IRE1α (WT)): decreases Ins1 mRNA decay under IRE1α hyperactivation
